Biological target: T1, human GluR2 flip (unedited) AMPA receptor subunit (Homo sapiens, UniProt P42262)
T1 construct: expressed in transfected cells
Assay: Calcium influx fluorescence assay (FLUO4, potentiation of glutamate response)
Type: cell-based
Settings: Assay a); HEK 293 cells expressing human GluR2 flip (unedited); 100 μM glutamate final; peak fluorescence
Protocol: The ability of the compounds of the invention to potentiate glutamate receptor-mediated response were determined a) by using fluorescent calcium-indicator dyes such as FLUO4 and b) by measuring glutamate-evoked current recorded from human GluR2 flip unedited HEK293 cells.
a) Calcium Influx Fluorescence Assay
384 well plates were prepared containing confluent monolayer of HEK 293 cells either stably expressing or transiently transfected with human GluR2 flip (unedited) AMPA receptor subunit. These cells form functional homotetrameric AMPA receptors. […]
The cell plate was then transferred into a fluorescence imaging plate based reader [such as the FLIPR384 (Molecular Devices)]. A baseline fluorescence reading was taken over a 10 to 240 second period, and then 10 μL from each plate containing a compound of the invention made up in standard buffer solution (in a concentration range from 100 μM to 10 pM) was added (to give a final concentration in the range 30 μM to 3 pM). The fluorescence was read over 5 minute period. […] The fluoresecence was then read over a 4 minute period. The activities of the compounds of the invention and reference compounds were determined by measuring peak fluorescence after the last addition. The activity can also be expressed relative to the fluorescence increase induced by cyclothiazide at their maximum response (i.e. greater than 30 μM).

T1 sequence (P42262 25-883 isoform P42262-2 limits assumed): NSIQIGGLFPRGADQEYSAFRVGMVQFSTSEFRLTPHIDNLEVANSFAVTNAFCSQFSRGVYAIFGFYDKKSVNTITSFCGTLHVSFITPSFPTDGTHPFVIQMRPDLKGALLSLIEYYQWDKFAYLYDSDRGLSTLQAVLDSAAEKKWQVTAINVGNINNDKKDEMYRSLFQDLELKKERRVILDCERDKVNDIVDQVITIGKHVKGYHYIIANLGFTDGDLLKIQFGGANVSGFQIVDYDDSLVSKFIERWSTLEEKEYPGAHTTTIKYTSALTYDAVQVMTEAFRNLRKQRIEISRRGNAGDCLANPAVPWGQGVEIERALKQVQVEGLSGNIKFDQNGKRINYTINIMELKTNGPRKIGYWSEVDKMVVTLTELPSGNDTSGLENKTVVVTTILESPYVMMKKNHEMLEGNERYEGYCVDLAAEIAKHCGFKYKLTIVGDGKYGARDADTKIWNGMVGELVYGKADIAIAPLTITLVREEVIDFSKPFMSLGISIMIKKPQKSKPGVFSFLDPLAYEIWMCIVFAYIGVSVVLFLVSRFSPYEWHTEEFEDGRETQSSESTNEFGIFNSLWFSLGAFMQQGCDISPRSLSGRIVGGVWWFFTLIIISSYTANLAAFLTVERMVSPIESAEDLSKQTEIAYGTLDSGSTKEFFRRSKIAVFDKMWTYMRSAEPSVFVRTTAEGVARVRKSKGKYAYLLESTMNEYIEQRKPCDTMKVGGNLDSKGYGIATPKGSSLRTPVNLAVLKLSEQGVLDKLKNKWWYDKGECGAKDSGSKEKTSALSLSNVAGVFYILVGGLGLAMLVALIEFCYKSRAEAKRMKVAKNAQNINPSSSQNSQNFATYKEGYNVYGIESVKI

Compound: CCS(=O)(=O)Nc1cccc(-c2ccc3c(c2)CC(NS(=O)(=O)C(C)C)C3)c1 (stereo not shown) [Example 6, N-(5-{3-[(ethylsulfonyl)amino]phenyl}-2,3-dihydro-1H-inden-2-yl)-2-propanesulfonamide]
- EC50: 3.16 µM

— patent US7741351B2, “Compounds which potentiate glutamate receptor and uses thereof in medicine” (Glaxo Group Limited, priority 2004, dated 2010)
